Measured values taken from patent US8361779B2, “Buffer compounds” (Sachem, Inc., priority 2010, dated 2013).
“Also recorded” adds a separate entry of the source. Structures can show the parent of a compound that is named as a salt. Where two headings read alike, the source gives them in different places.

Experiments:
[1] = Est. pKa of Table 1 compounds (approximate measurements of pKa-values); assay type: physicochemical; conditions: for pKa: aqueous 80 mM KCl solution (pH titration with 100 mM KOH)
Protocol: This method is used when nonreactive impurities are >5% (HPLC), when reactive impurities are >1% (HPLC), when insufficient buffer is available or when noticeably poor curve fitting is seen in the above method. The experimental method is nearly the same as the above method, but the experimental volume-pH data are processed differently. Usually, only one or two titrations are carried out. The pKa is estimated to be the same as the pH of the titration curve at the half-equivalence point. The estimated pKa values can be as good at ±0.1 or as poor as ±0.5 depending on the nature and amounts of impurities.

[2] = pKa values quoted for buffers (buffer combinations table); assay type: physicochemical; conditions: for pKa: aqueous solution, read-out: pKa of buffer in cationic/anionic buffer combinations; for pKa / pKa of buffer in cationic/anionic buffer combinations: 25° C., ionic-strength 0.10 unless otherwise specified (b6)
From the text: pH is a measurement of solvated hydrogen-ion activity, which is directly related to hydrogen ion concentration: −log [H^+]. […] Activity is a defined thermodynamic term and is related to concentration. At low concentration and low ionic-strength, activity approximately equals concentration. […] Such pKa values are more applicable to practical conditions than are thermodynamic pKa values where μ≈0. […] Initially, approximately equal concentrations are chosen.

[3] = Precision measurements of pKa-values by pH titration; assay type: physicochemical; conditions: titrated with 100 mM KOH, six titrations, 25° C., ionic-strength 0.10 unless otherwise specified (b6); for Meas. pKa: 10 mM buffer, 80 mM KCl
Protocol: High purity analytical quality reagents are used in these studies: potassium chloride, potassium hydroxide, primary standard potassium acid phthalate (KAP, Baker), 18 meg-ohm deionized doubly-distilled water (CO2-free). […] They are dried in a vacuum oven at 50° C. for 18-24 hours and stored in a glass desiccator over P2O5. The only remaining impurities are inert water/solvent and traces of residual HCl or HBr. Most buffers are stable in atmospheric air; a few are somewhat hygroscopic. During the weighing of the buffer compounds, care is taken to prevent or minimize absorption of atmospheric moisture. Solutions containing 10 mM buffer and 80 mM KCl are carefully prepared using degassed, deionized water and standardized volumetric flasks. Six independent pH titrations are carried out for each buffer compound using 100 mM carbonate-free KOH that is carefully standardized against KAP.
The titrator is controlled and data collected by LabX Titration software, version 2.5. The titration cell is thermostatically controlled at 10.00±0.05° C., 25.00±0.05° C. or 40.00±±0.05° C. Temperatures are measured using a NIST-traceable mercury thermometer. Titrations are adjusted so that the endpoint is close to 5 mL delivery point of the burette. Incremental titrations are carried out with increment volume of 100 μl and with continuous stirring; the system is allowed to settle after each incremental addition (10-30 sec) before a reading is recorded. Accurate, NIST-traceable buffers (±0.001 pH unit) with accurately known values at 2, 4, 7, 10, 12 in the temperature range 10-40° C. are used (Oakton Instruments, Vernon Hills, Ill.). The electrode is calibrated at pH=2, 4, 10 and 12. The pH=7 buffer is independently measured. If the pH=7 measurement is accurate to ±0.002 pH unit, a titration is carried out; if not, the calibration is repeated. A pH calibration is carried out before each titration experiment. […]

[4] = tested on: Escherichia coli, Pseudomonas fluorescens, Pichia pastoris, Saccharyomyces cerevisiae; assay: Microbial growth-inhibition assays, all four organisms; assay type: cell-based; conditions: for comparative growth behaviour between buffers: all four organisms, pH 7.0; for order of growth inhibition at higher concentrations: standard buffers
Protocol: (§1) Microbial growth inhibition assays are carried out 96-well plates with well volume of 400 μL. In the present inventors' hands, data obtained in this manner are almost equivalent to that obtained in traditional shake flasks while data collection is more accurate and convenient. Two calibrated plate readers are used so that two plates, corresponding to a single organism, could be read at the same time. Each plate contains 80 cells for one organism and four buffers each at five concentrations (25, 50, 100, 225, 500 mM) with each buffer-concentration combination (20) being replicated four-fold. Each of these cells contained 50 μL of a fresh, calibrated cell culture plus 250 μL fresh sterile cell culture. In addition, each plate contained eight identical cells with 250 μL sterile, buffer-free growth medium plus 50 μL fresh cell culture and eight cells with 300 μL sterile growth medium and no organism. Microbial growth is measured by light-scattering/absorbance measurements at 600 nm every 15-60 minutes for the prescribed period. Every 15 minutes, each plate undergoes agitation/vibration which resuspends the organisms and promotes aeration; this process is repeated just prior to each absorbance reading. For each medium, six bottles of sterile media are prepared, one for each buffer concentration (0, 30, 60, 120, 270, 600 mM) so that when each is diluted in the plate, the desired concentrations will be obtained. The media components (see below), added buffer and water are mixed, and the pH is adjusted to the proper value. Each bottle of medium is heat sterilized (121° C., 15 psig, 20 minutes), cooled and, if necessary, the pH is readjusted to the proper value in a sterile fashion with 37% HCl or 50% NaOH.
Based upon prior experience with these organisms, a series of microbial growth measurements are carried out to determine optimal growth conditions. Four different media compositions unique to each organism each at four pH values (6.0, 6.5, 7.0, 7.5) are measured at three temperatures (23° C., 30° C., 37° C.). Fortunately, combinations of near optimal growth conditions have been found so that the same pH of 7.0±0.1 could be used for all four organisms that are listed below:
Compositions of growth media are listed below for one liter of medium. pH is adjusted to 7.0±0.1 both before and after heat sterilization. Similar growth results are obtained when the added cationic buffer is added before heat-sterilization and after heat-sterilization via sterile filtration. Several useful growth media containing methanol are known for Pichia, but ME broth is equally good under the current conditions, and then evaporation of methanol is not a problem. Amounts below are given as g/L in sterilized growth medium.
(§2) The bacterial and yeast strains are grown up and counted several times in each respective growth medium obtain fresh, stable, reproducible cultures of known density as a function of time. Microbial counting is carried out in the usual fashion by using serial dilutions followed by plate counting. Each culture is diluted and plated three times, and the values are averaged. When a culture reaches the proper microbial density (cfu/mL), two 96-well plates are quickly loaded as described above, and plate reading is started using two matched plate readers.

[5] = tested on: Pseudomonas fluorescens ATCC 19020; assay: Microbial growth-inhibition assay, P. fluorescens; assay type: cell-based; conditions: 30° C., PM broth
Protocol: as §1, with “For each medium, six bottles of sterile media are prepared, one for each buffer concentration (0, 30, 60, 120, 270, 600 mM) so that when each is diluted in the plate, the desired concentrations will be obtained. The media components (see below), added buffer and water are mixed, and the pH is adjusted to the proper value.” left out
Based upon prior experience with these organisms, a series of microbial growth measurements are carried out to determine optimal growth conditions. Four different media compositions unique to each organism each at four pH values (6.0, 6.5, 7.0, 7.5) are measured at three temperatures (23° C., 30° C., 37° C.). […]
as §2, with “Microbial counting is carried out in the usual fashion by using serial dilutions followed by plate counting. Each culture is diluted and plated three times, and the values are averaged.” left out

[6] = Change in pKa of amine caused by proximal quaternary ammonium group; assay type: physicochemical
From the text: The presence of a quaternary ammonium (quat) group in a molecule that also contains an amine group will reduce the pKa of the amine as measured in aqueous media and polar nonaqueous media. […] All three effects as described will generally lead to some reduction of observed pKa in the molecule of interest. […] The amount of reduction in pKa depends on (1) the number of quat groups, (2) the distance of the quat group(s) from the amine and (3) the rigidity of the molecule that holds the quat group and amine in more fixed position with regard to each other.

[7] = single value, read-out: Est. pKa
[8] = HEPES, buffer combinations table
[9] = relative to trimethylamine, water at 25° C., μ=0.1, approximate numbers

In the case of “1,1,5,9-tetramethyl-2-hydroxy-5,9-bis(2-sulfoethyl)-1,5,9-triazanonane di-inner salt [Compound 82]”, the “Est. pKa, second of two values” ([1]; wide-range buffer, higher pKa) is reported as ~8.0 and the “Est. pKa, first of two values” ([1]; wide-range buffer, lower pKa) is reported as ~6.5.
With `OB(O)O` [Boric Acid] the pKa [2] was 9.
With `O=S(=O)(O)CCNC1CCCCC1` [CHES (H+)] the “pKa of buffer in cationic/anionic buffer combinations” value [2] was 9.4.
Compound `C[N+](C)(C)CC(O)CC(=O)[O-]` (centres unmarked) [Carnitine HCl] has a pKa ([3]; aqueous solution of 10 mM buffer and 80 mM KCl, read-out: Meas. pKa) of 3.83.
In the case of `CN(C)CC(O)C[N+](C)(C)C.[Cl-]` (centres unmarked) [Compound 8], the “comparative growth behaviour between buffers” value [4] is reported as “is better than TRIS”, the “pKa quoted in comparison of buffers with similar pKa values” (“pKa quoted in comparison of buffers” for short) [2] is reported as 7.9 and the “comparative growth of Pseudomonas” value [5] is reported as “DEAGA and MEAGA are clearly better than DIMEGA and DEGA”.
For `CCN(CC)CC(O)C[N+](C)(C)C.[Cl-]` (centres unmarked) [Compound 10, N-(2-hydroxy-3-trimethylammonium-propyl)diethylamine chloride], the “comparative growth behaviour between buffers” value [4] was “TAPS (8.4) is better than DEGA”, the “pKa quoted in comparison of buffers” value [2] was 8.5 and the “comparative growth of Pseudomonas” value [5] was “DEAGA and MEAGA are clearly better than DIMEGA and DEGA”.
For `C[N+](C)(C)CC(O)CNC(CO)(CO)CO` (centres unmarked) [Compound 19a], the pKa [1, 7] was ~5.8.
With `CN(CCO)CC[N+](C)(C)CCO` [Compound 20a] the pKa [1, 7] was ~5.2.
With `CCN(CC)CC[N+](C)(CC)CC` [Compound 28a] the pKa [1, 7] was ~6.7.
With `CN(C)CCC[N+](C)(C)C.Cl.[Cl-]` [Compound 29a, (3-trimethylammoniumpropyl) dimethylamine chloride hydrochloride] the “Est. pKa” value ([1]; single value) was ~8.1.
With `CCN(CC)CCC[N+](C)(CC)CC` [Compound 30a] the pKa [1, 7] was ~8.7.
With `CCN(CC)CCCCCC[N+](C)(CC)CC` [Compound 34a] the pKa [1, 7] was ~10.1.
With `C[N+](C)(C)CC(O)CN(CCO)CCCS(=O)(=O)[O-]` (centres unmarked) [Compound 51, N-(2-hydroxy-3-trimethylammoniumpropyl)-N-(2-hydroxyethyl)homotaurine inner salt] the “Est. pKa” value ([1]; single value) was ~6.4.
For `CN(C)CCC[N+](C)(C)CCCS(=O)(=O)[O-]` [Compound 57, N,N,N′,N′-tetramethyl-N-(3-sulfopropyl)-1,3-propanediamine Inner salt], the “Est. pKa” value ([1]; single value) was ~8.1.
Compound `CN(C)CC(O)C[N+](C)(CCCN(C)CCS(=O)(=O)O)CCS(=O)(=O)[O-]` (centres unmarked) [Compound 59] has a pKa ([1]; wide-range buffer, higher pKa, read-out: Est. pKa, second of two values) of ~8 and a pKa ([1]; wide-range buffer, lower pKa, read-out: Est. pKa, first of two values) of ~6.5.
In the case of `CN(C)CCC[N+](C)(C)CCCP(=O)([O-])O` [Compound 60, N,N,N′,N′-tetramethyl-N-(3-phosphonopropyl)-1,3-propanediammonium di-Inner salt], the “Est. pKa, second of two values” ([1]; wide-range buffer, higher pKa) is reported as ~8.2 and the “Est. pKa, first of two values” ([1]; wide-range buffer, lower pKa) is reported as ~6.8.
For `CN(CCCS(=O)(=O)O)CC[N+](C)(C)CCCS(=O)(=O)[O-]` [Compound 66, N,N′,N′-trimethyl-N,N′-bis(3-sulfopropyl)ethylenediammonium di-inner salt], the “Est. pKa” value ([1]; single value) was ~5.5.
`CCN(C(C)C)C1CC[N+](CC)(CC)CC1` [Compound 74a] showed a pKa [1, 7] of ~7.4.
In the case of `Br.CN(C)C(=NCCC[N+](C)(C)C)N(C)C.[Br-]` [Compound 76, 2-(3-trimethylammoniumpropyl)-1,1,3,3-tetramethylguanidine bromide hydrobromide], the “Est. pKa” value ([1]; single value) is reported as ~12.9.
In the case of `CN1CCN(C)C1=NCC[N+](C)(C)C.Cl.[Cl-]` [Compound 77, N(2-(1′,3′-dimethylimidazoline-2′-iminato)ethyl)trimethyl-ammonium chloride hydrochloride], the “Est. pKa” value ([1]; single value) is reported as ~11.1.
For `C[N+](C)(C)CC(O)CNCCO.Cl.[Cl-]` (centres unmarked) [Compound 78a, N-(3-trimethylammonium-2-hydroxypropyl)ethanolamine chloride hydrochloride], the “Est. pKa” value ([1]; single value) was ~7.8.
With `Br.CCOP(=O)(CCC[N+](C)(C)CCCN(C)C)OCC.[Br-]` [Compound 79a, N,N,N′,N′-tetramethyl-N-(3-diethylphosphonopropyl)-1,3-propanediamine diethyl ester bromide•hydrobromide] the “Est. pKa” value ([1]; single value) was ~8.1.
With `CN(CCC[N+](C)(CCS(=O)(=O)[O-])CC(O)C[N+](C)(C)Cc1ccccc1)CCS(=O)(=O)[O-]` (centres unmarked) [Compound 81, 1-benzyl-1,1,5,9-tetramethyl-3-hydroxy-5,9-bis(2-sulfoethyl)-1,5,9-triazanonane, di-inner salt] the “Est. pKa” value ([1]; single value) was ~6.1.
With `O=S(=O)(O)CCN1CCN(CCO)CC1` [HEPES] the pKa1 [2, 8] was 3.0 and the pKa2 [2, 8] was 7.5.
With `O=S(=O)(O)CCN1CCOCC1` [MES] the “comparative growth behaviour between buffers” value [4] was “about the same behavior”.
In the case of `O=S(=O)(O)CCCN1CCOCC1` [MOPS], the “Meas. pKa” value [3] is reported as 7.099.
With `COCC(=O)O` [Methoxyacetic Acid] the pKa [2] was 3.3.
In the case of `CN1CCC[N+](C)(C)CC1` [N,N′,N′-Me3-Homopiperazinium^+], the “Change in pKa of Me2N—” value [6, 9] is reported as ~−3.6 log K units.
For `CN1CC[N+](C)(C)CC1` [N,N′,N′-Me3-Piperazinium^+], the “Change in pKa of Me2N—” value [6, 9] was ~−5.5 log K units.
In the case of `C[N+]12CCN(CC1)CC2` [N-Me-Diazabicyclo[2.2.2]octane^+], the “Change in pKa of Me2N—” value [6] is reported as ~−6.7 log K units.
With `O=S(=O)(O)CCCNC(CO)(CO)CO` [TAPS] the “Meas. pKa” value [3] was 8.410, the “comparative growth behaviour between buffers” value [4] was “consistently the best of all eight buffers tested; also recorded: is better than DEGA” and the “order of growth inhibition at higher concentrations” value [4] was “TRIS>MES>TAPS”. For the same compound, the “pKa quoted in comparison of buffers” value [2] was 8.4.
With `O=S(=O)(O)CCNC(CO)(CO)CO` [TES (H+)] the “pKa of buffer in cationic/anionic buffer combinations” value [2] was 7.5.
With `NC(CO)(CO)CO` [TRIS] the “comparative growth behaviour between buffers” value [4] was “DIMEGA (7.9) is better than TRIS”, the “order of growth inhibition at higher concentrations” value [4] was “TRIS>MES>TAPS” and the “comparative growth of Pseudomonas” value [5] was “all 5 cationic buffers being better than TRIS”.
In the case of `CN(C)C[N+](C)(C)C` [n = 1* (—CH2—)], the hydrolytic stability [6] is reported as “Limited hydrolytic stability” and the “Change in pKa of Me2N—” value [6, 9] is reported as ~−10.5 log K units.
For `CN(C)CC[N+](C)(C)C` [n = 2 (—CH2CH2—)], the “Change in pKa of Me2N—” value [6, 9] was ~−3.7 log K units.
With `CN(C)CCC[N+](C)(C)C` [n = 3 (—CH2CH2CH2—)] the “Change in pKa of Me2N—” value [6, 9] was ~−1.7 log K units.
For `CN(C)CC(O)C[N+](C)(C)C` (centres unmarked) [n = 3 (—CH2CH(OH)CH2—)], the “Change in pKa of Me2N—” value [6, 9] was ~−1.9 log K units.
For `CN(C)CC=CC[N+](C)(C)C` [n = 4 (trans —CH2CH═CHCH2—)], the “Change in pKa of Me2N—” value [6, 9] was ~−1.3 log K units.
For `CN(C)CCCC[N+](C)(C)C` [n = 4 (—CH2(CH2)2CH2—)], the “Change in pKa of Me2N—” value [6, 9] was ~−0.9 log K units.
For `CN(C)CC(O)C(O)C[N+](C)(C)C` (centres unmarked) [n = 4 (—CH2CH(OH)CH(OH)CH2—)], the “Change in pKa of Me2N—” value [6, 9] was ~−1.1 log K units.
With `CN(C)CCCCC[N+](C)(C)C` [n = 5 (—CH2(CH2)3CH2—)] the “Change in pKa of Me2N—” value [6, 9] was ~−0.5 log K units.
With `CN(C)CCCCCC[N+](C)(C)C` [n = 6 (—CH2(CH2)4CH2—)] the “Change in pKa of Me2N—” value [6, 9] was ~−0.3 log K units.
